# From ChEMBL document CHEMBL3397033, “Bioactive benzofuran derivatives: moracins A-Z in medicinal chemistry” (Eur J Med Chem, 2015)
# Legend:
# [1] = Antifungal activity against Diaporthe nomurai; type: functional
# [2] = system: Pseudomonas aeruginosa; assay: Antimicrobial activity against Pseudomonas aeruginosa; type: functional
# [3] = Antifungal activity against Fusarium roseum; type: functional
# [4] = Antifungal activity against Cochliobolus miyabeanus; type: functional; details: Bipolaris oryzae
# [5] = Antifungal activity against Stigmina mori; type: functional
# [6] = system: Rosellinia necatrix; assay: Antifungal activity against Rosellinia necatrix; type: functional
# [7] = Antifungal activity against Fusarium solani f. sp. mori; type: functional
# [8] = system: Escherichia coli; assay: Antimicrobial activity against Escherichia coli; type: functional
# [9] = system: Klebsiella pneumoniae; assay: Antimicrobial activity against Klebsiella pneumoniae; type: functional
# [10] = Antifungal activity against Fusarium lateritium f. sp. mori; type: functional
# [11] = Antioxidant activity assessed as DPPH radical scavenging activity measured as discoloration at 50 ug/ml; type: physicochemical
# [12] = Antioxidant activity assessed as DPPH radical scavenging activity measured as discoloration at 25 ug/ml; type: physicochemical
# [13] = Antioxidant activity assessed as DPPH radical scavenging activity measured as discoloration at 12.5 ug/ml; type: physicochemical
# [14] = Antioxidant activity assessed as DPPH radical scavenging activity measured as discoloration at 100 ug/ml; type: physicochemical
# [15] = Antioxidant activity assessed as DPPH radical scavenging activity; type: physicochemical
# [16] = Cytotoxicity against human HCT8 cells after 96 hrs by MTT assay; type: functional, cell-based; details: HCT-8, 96 h
# [17] = system: A549; assay: Cytotoxicity against human A549 cells after 96 hrs by MTT assay; type: functional, cell-based; details: A549, 96 h
# [18] = system: A2780; assay: Cytotoxicity against human A2780 cells after 96 hrs by MTT assay; type: functional, cell-based; details: A2780, 96 h
# [19] = Cytotoxicity against human Bel7402 cells after 96 hrs by MTT assay; type: functional, cell-based; details: Bel-7402, 96 h
# [20] = Cytotoxicity against human BGC823 cells after 96 hrs by MTT assay; type: functional, cell-based; details: BGC-823, 96 h
# [21] = system: Staphylococcus aureus; assay: Antimicrobial activity against Staphylococcus aureus by liquid microdilution assay; type: functional
# [22] = system: Klebsiella pneumoniae; assay: Microbicidal activity against Klebsiella pneumoniae by liquid microdilution assay; type: functional
# [23] = system: Enterococcus faecalis; assay: Microbicidal activity against Streptococcus faecalis by liquid microdilution assay; type: functional
# [24] = system: Microsporum audouinii; assay: Antimicrobial activity against Microsporum audouinii by liquid microdilution assay; type: functional
# [25] = system: Bacillus cereus; assay: Microbicidal activity against Bacillus cereus by liquid microdilution assay; type: functional
# [26] = system: Escherichia coli; assay: Microbicidal activity against Escherichia coli by liquid microdilution assay; type: functional
# [27] = system: Pseudomonas aeruginosa; assay: Microbicidal activity against Pseudomonas aeruginosa by liquid microdilution assay; type: functional
# [28] = system: Enterococcus faecalis; assay: Antimicrobial activity against Streptococcus faecalis by liquid microdilution assay; type: functional
# [29] = system: Staphylococcus aureus; assay: Microbicidal activity against Staphylococcus aureus by liquid microdilution assay; type: functional
# [30] = system: Candida albicans; assay: Antimicrobial activity against Candida albicans by liquid microdilution assay; type: functional
# [31] = system: Citrobacter freundii; assay: Microbicidal activity against Citrobacter freundii by liquid microdilution assay; type: functional
# [32] = system: Microsporum audouinii; assay: Microbicidal activity against Microsporum audouinii by liquid microdilution assay; type: functional
# [33] = system: Salmonella typhi; assay: Antimicrobial activity against Salmonella typhi by liquid microdilution assay; type: functional, Salmonella enterica subsp. enterica serovar Typhi; details: Salmonella enterica
# [34] = system: Shigella dysenteriae; assay: Microbicidal activity against Shigella dysenteriae by liquid microdilution assay; type: functional
# [35] = system: Pseudomonas aeruginosa; assay: Antimicrobial activity against Pseudomonas aeruginosa by liquid microdilution assay; type: functional
# [36] = system: Bacillus cereus; assay: Antimicrobial activity against Bacillus cereus by liquid microdilution assay; type: functional
# [37] = system: Salmonella typhi; assay: Microbicidal activity against Salmonella typhi by liquid microdilution assay; type: functional, Salmonella enterica subsp. enterica serovar Typhi; details: Salmonella enterica
# [38] = system: Escherichia coli; assay: Antimicrobial activity against Escherichia coli by liquid microdilution assay; type: functional
# [39] = system: Candida albicans; assay: Microbicidal activity against Candida albicans by liquid microdilution assay; type: functional
# [40] = system: Klebsiella pneumoniae; assay: Antimicrobial activity against Klebsiella pneumoniae by liquid microdilution assay; type: functional
# [41] = system: Citrobacter freundii; assay: Antimicrobial activity against Citrobacter freundii by liquid microdilution assay; type: functional
# [42] = system: Shigella dysenteriae; assay: Antimicrobial activity against Shigella dysenteriae by liquid microdilution assay; type: functional
smiles,measurement,setting,value
CC1=CCc2c(ccc3cc(-c4cc(O)cc(O)c4)oc23)OC1,MIC,[1],50 µg/mL
same,MIC,[2],> 100 µg/mL
same,MIC,[3],15 µg/mL
same,MIC,[4],50 µg/mL
same,MIC,[5],50 µg/mL
same,MIC,[6],15 µg/mL
same,MIC,[7],500 µg/mL
same,MIC,[8],> 100 µg/mL
same,MIC,[9],> 100 µg/mL
same,MIC,[10],500 µg/mL
COc1cc(O)cc(-c2cc3cc(O)c(OC)cc3o2)c1,MIC,[2],> 100 µg/mL
same,MIC,[8],> 100 µg/mL
same,MIC,[9],> 100 µg/mL
CC(C)=CCc1c(O)ccc2cc(-c3cc(O)cc(O)c3)oc12,Activity,[11],67.87%
same,MIC,[2],> 100 µg/mL
same,Activity,[12],62.25%
same,Activity,[13],55%
same,Activity,[14],69.72%
same,EC50,[15],5.06 µg/mL
same,MIC,[8],> 100 µg/mL
same,MIC,[9],> 100 µg/mL
COc1cc2oc(-c3cc(O)cc(O)c3)cc2cc1O,MIC,[2],> 100 µg/mL
same,MIC,[8],> 100 µg/mL
same,MIC,[9],> 100 µg/mL
Oc1cc(O)cc(-c2cc3cc4ccoc4cc3o2)c1,IC50,[16],6.4 µg/mL
same,IC50,[17],7.3 µg/mL
same,IC50,[18],5.9 µg/mL
same,MIC,[2],> 100 µg/mL
same,IC50,[19],5.9 µg/mL
same,IC50,[20],3.8 µg/mL
same,MIC,[8],> 100 µg/mL
same,MIC,[9],> 100 µg/mL
COc1cc(O)cc(-c2cc3ccc(O)cc3o2)c1CC=C(C)C [MORACIN I],MIC,[2],> 100 µg/mL
same,MIC,[8],> 100 µg/mL
same,MIC,[9],> 100 µg/mL
CC1(C)C=Cc2c(cc(O)cc2-c2cc3ccc(O)cc3o2)O1,MIC,[1],15 µg/mL
same,MIC,[2],> 100 µg/mL
same,MIC,[3],15 µg/mL
same,MIC,[4],100 µg/mL
same,MIC,[5],200 µg/mL
same,MIC,[6],15 µg/mL
same,MIC,[7],200 µg/mL
same,MIC,[8],> 100 µg/mL
same,MIC,[9],> 100 µg/mL
same,MIC,[10],50 µg/mL
COc1c(O)cc2oc(-c3cc(O)cc(O)c3)cc2c1CC=C(C)C,MIC,[21],10 µg/mL
same,Activity,[11],71.72%
same,MBC,[22],78 µg/mL
same,MBC,[23],39 µg/mL
same,MIC,[24],39 µg/mL
same,MIC,[2],> 100 µg/mL
same,Activity,[12],65.63%
same,MBC,[25],39 µg/mL
same,MBC,[26],10 µg/mL
same,MBC,[27],20 µg/mL
same,Activity,[13],61.58%
same,MIC,[28],10 µg/mL
same,MBC,[29],39 µg/mL
same,MIC,[30],10 µg/mL
same,Activity,[14],83.04%
same,MBC,[31],312 µg/mL
same,EC50,[15],4.12 µg/mL
same,MFC,[32],78 µg/mL
same,MIC,[33],5 µg/mL
same,MBC,[34],10 µg/mL
same,MIC,[35],5 µg/mL
same,MIC,[36],5 µg/mL
same,MBC,[37],20 µg/mL
same,MIC,[38],5 µg/mL
same,MFC,[39],20 µg/mL
same,MIC,[8],> 100 µg/mL
same,MIC,[9],> 100 µg/mL
same,MIC,[40],39 µg/mL
same,MIC,[41],156 µg/mL
same,MIC,[42],5 µg/mL
COc1cc(OC)c2cc(-c3cc(O)cc(O)c3)oc2c1,MIC,[2],> 100 µg/mL
same,MIC,[8],> 100 µg/mL
same,MIC,[9],> 100 µg/mL
C/C(=C/Cc1c(O)c2c(c3cc(-c4cc(O)cc(O)c4)oc13)C=CC(C)(C)O2)CCCC(C)(C)O,IC50,[16],9.2 µg/mL
same,IC50,[17],> 10 µg/mL
same,IC50,[18],> 10 µg/mL
same,MIC,[2],> 100 µg/mL
same,IC50,[19],> 10 µg/mL
same,IC50,[20],8.3 µg/mL
same,MIC,[8],> 100 µg/mL
same,MIC,[9],> 100 µg/mL
CC1(O)C=Cc2c(c(O)cc3cc(-c4cc(O)cc(O)c4)oc23)OC1 (stereo not given),MIC,[21],156 µg/mL
same,Activity,[11],49.98%
same,MBC,[22],312 µg/mL
same,MBC,[23],78 µg/mL
same,MIC,[24],78 µg/mL
same,MIC,[2],> 100 µg/mL
same,Activity,[12],42.09%
same,MBC,[25],39 µg/mL
same,MBC,[26],39 µg/mL
same,Activity,[13],38.5%
same,MIC,[28],20 µg/mL
same,MBC,[29],312 µg/mL
same,MIC,[30],312 µg/mL
same,Activity,[14],53.6%
same,MBC,[31],625 µg/mL
same,EC50,[15],6.08 µg/mL
same,MFC,[32],312 µg/mL
same,MIC,[33],39 µg/mL
same,MBC,[34],156 µg/mL
same,MIC,[35],625 µg/mL
same,MIC,[36],10 µg/mL
same,MBC,[37],78 µg/mL
same,MIC,[38],10 µg/mL
same,MFC,[39],625 µg/mL
same,MIC,[8],> 100 µg/mL
same,MIC,[9],> 100 µg/mL
same,MIC,[40],156 µg/mL
same,MIC,[41],312 µg/mL
same,MIC,[42],78 µg/mL
